Data as given in patent publication US7338958B2, “Sulfoximine-substituted pyrimidines as CDK-and/or VEGF inhibitors, their production and use as pharmaceutical agents” (Schering AG, priority 2003, dated 2008).
Like-named read-outs stand apart in the source and are kept apart here.

Assays:
MaTu-ADR = experiment: Proliferation assay, MaTu-ADR; type: cell-based; settings: Homo sapiens, 96 h, MaTu-ADR cells, 4 days incubation, crystal violet
Text: (§1) Cultivated human tumor cells (MCF7, hormone-independent human breast cancer cells, related to ATCC HTB22; NCI-H460, human non-small-cell lung cancer cells, ATCC HTB-177, HCT 116, human colon cancer cells, ATCC CCL-247; DU 145, hormone-independent human prostate cancer cells, ATCC HTB-81; MaTu-MDR, hormone-independent, multiple pharmaceutical agent-resistant human breast cancer cells, EPO-GmbH, Berlin) were flattened out at a density of about 5000 cells/measuring point, depending on the growth rate of the respective cells, in a 96-well multititer plate in 200 μl of the corresponding growth medium. After 24 hours, the cells of one plate (zero-point plate) were colored with crystal violet (see below), while the medium of the other plates was replaced by fresh culture medium (200 μl), to which the test substances were added in various concentrations (0 μm, as well as in the range of 0.01-30 μm; the final concentration of the solvent dimethyl sulfoxide was 0.5%). The cells were incubated for 4 days in the presence of test substances. The cell proliferation was determined by coloring the cells with crystal violet: the cells were fixed by adding 20 μl/measuring point of an 11% glutaric aldehyde solution for 15 minutes at room temperature. After three washing cycles of the fixed cells with water, the plates were dried at room temperature. The cells were colored by adding 100 μl/measuring point of a 0.1% crystal violet solution (the pH was set at 3 by adding acetic acid). After three washing cycles of the colored cells with water, the plates were dried at room temperature. The dye was dissolved by adding 100 μl/measuring point of a 10% acetic acid solution. The extinction was determined by photometry at a wavelength of 595 nm. The change of cell growth, in percent, was calculated by normalization of the measured values to the extinction values of the zero-point plate (=0%) and the extinction of the untreated (0 μm) cells (=100%).

CDK2/CycE = biological target: T1, CDK2/CycE (Homo sapiens, UniProt P24941); experiment: CDK2/CycE Kinase Assay; type: biochemical; settings: histone IIIS substrate, 33P-ATP, 15 minutes at 22° C.
T1 construct: GST; purchased ProQinase GmbH, Freiburg; host or cells: baculovirus-infected insect cells (Sf9)
Experimental: Recombinant CDK2- and CycE-GST-fusion proteins, purified from baculovirus-infected insect cells (Sf9), were purchased by ProQinase GmbH, Freiburg. Histone IIIs, which was used as a kinase substrate, was purchased by the Sigma Company.
CDK2/CycE (50 ng/measuring point) was incubated for 15 minutes at 22° C. in the presence of various concentrations of test substances (0 μm, as well as within the range of 0.01-100 μm) in assay buffer [50 mmol of tris/HCl, pH 8.0, 10 mmol of MgCl2, 0.1 mmol of Na ortho-vanadate, 1.0 mmol of dithiothreitol, 0.5 μm of adenosine triphosphate (ATP), 10 μg/measuring point of histone IIIS, 0.2 μCi/measuring point of ^33P-gamma ATP, 0.05% NP40, 12.5% dimethyl sulfoxide]. The reaction was stopped by adding EDTA solution (250 mmol, pH 8.0, 14 μl/measuring point).
(§2) From each reaction batch, 10 μl was applied to P30 filter strips (Wallac Company), and non-incorporated ^33P-ATP was removed by subjecting the filter strips to three washing cycles for 10 minutes each in 0.5% phosphoric acid. After the filter strips were dried for one hour at 70° C., the filter strips were covered with scintillator strips (MeltiLex™ A, Wallac Company) and baked for one hour at 90° C. The amount of incorporated ^33P (substrate phosphorylation) was determined by scintillation measurement in a gamma-radiation measuring device (Wallac).

[1] = test system: NCI-H460, human non-small-cell lung cancer cells; experiment: Proliferation assay, H460; type: cell-based; settings: NCI-H460, 96 h, 4 days incubation, crystal violet
Text: as §1

[2] = test system: MCF7, hormone-independent human breast cancer cells; experiment: Proliferation assay, MCF7; type: cell-based; settings: MCF7, 96 h, 4 days incubation, crystal violet
Text: as §1

[3] = test system: DU 145, hormone-independent human prostate cancer cells; experiment: Proliferation assay, DU145; type: cell-based; settings: DU-145, 96 h, 4 days incubation, crystal violet
Text: as §1

CDK1/CycB = biological target: T2, CDK1/CycB (Homo sapiens, UniProt P06493); experiment: CDK1/CycB Kinase Assay; type: biochemical; settings: histone IIIS substrate, 33P-ATP, 15 minutes at 22° C.
T2 construct: GST; purchased ProQinase GmbH, Freiburg; host or cells: baculovirus-infected insect cells (Sf9)
T2 sequence (P06493 whole entry): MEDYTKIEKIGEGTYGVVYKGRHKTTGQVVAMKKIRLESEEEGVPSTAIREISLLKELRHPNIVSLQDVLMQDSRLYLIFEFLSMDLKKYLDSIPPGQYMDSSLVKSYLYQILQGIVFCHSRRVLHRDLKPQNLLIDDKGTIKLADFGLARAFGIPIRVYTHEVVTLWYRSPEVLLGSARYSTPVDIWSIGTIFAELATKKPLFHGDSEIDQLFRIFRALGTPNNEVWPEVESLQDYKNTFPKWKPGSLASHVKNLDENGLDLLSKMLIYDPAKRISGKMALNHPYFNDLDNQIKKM
T2 sequence (P14635 whole entry partner): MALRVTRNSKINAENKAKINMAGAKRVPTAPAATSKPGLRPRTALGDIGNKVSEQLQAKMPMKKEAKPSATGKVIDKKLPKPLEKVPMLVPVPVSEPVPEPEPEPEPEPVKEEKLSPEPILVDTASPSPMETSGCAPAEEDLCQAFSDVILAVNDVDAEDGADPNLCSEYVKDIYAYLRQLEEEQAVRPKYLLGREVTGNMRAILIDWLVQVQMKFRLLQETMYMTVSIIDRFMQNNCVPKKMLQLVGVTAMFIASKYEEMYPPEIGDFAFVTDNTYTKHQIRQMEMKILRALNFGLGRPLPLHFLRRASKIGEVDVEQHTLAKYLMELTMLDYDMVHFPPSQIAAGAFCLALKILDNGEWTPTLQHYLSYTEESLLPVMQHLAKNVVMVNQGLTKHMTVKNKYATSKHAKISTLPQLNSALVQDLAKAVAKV
Experimental: Recombinant CDK1- and CycB-GST-fusion proteins, purified from baculovirus-infected insect cells (Sf9), were purchased from ProQinase GmbH, Freiburg. Histone IIIS, used as a kinase substrate, is available commercially from the Sigma Company.
The reaction was stopped by adding EDTA solution (250 mmol, pH 8.0, 14 μl/measuring point).
as §2, with “33P-ATP” for “^33P-ATP”, “33P” for “^33P”

[4] = biological target: T3, VEGF receptor tyrosine kinase-2 (Homo sapiens, UniProt P35968); experiment: VEGF Receptor-2 Kinase Assay; type: biochemical; settings: 33P-ATP, 10 minutes at 22° C.
T3 construct: GST; made in house; host or cells: baculovirus-infected insect cells (Sf9)
T3 sequence (P35968 20-1356): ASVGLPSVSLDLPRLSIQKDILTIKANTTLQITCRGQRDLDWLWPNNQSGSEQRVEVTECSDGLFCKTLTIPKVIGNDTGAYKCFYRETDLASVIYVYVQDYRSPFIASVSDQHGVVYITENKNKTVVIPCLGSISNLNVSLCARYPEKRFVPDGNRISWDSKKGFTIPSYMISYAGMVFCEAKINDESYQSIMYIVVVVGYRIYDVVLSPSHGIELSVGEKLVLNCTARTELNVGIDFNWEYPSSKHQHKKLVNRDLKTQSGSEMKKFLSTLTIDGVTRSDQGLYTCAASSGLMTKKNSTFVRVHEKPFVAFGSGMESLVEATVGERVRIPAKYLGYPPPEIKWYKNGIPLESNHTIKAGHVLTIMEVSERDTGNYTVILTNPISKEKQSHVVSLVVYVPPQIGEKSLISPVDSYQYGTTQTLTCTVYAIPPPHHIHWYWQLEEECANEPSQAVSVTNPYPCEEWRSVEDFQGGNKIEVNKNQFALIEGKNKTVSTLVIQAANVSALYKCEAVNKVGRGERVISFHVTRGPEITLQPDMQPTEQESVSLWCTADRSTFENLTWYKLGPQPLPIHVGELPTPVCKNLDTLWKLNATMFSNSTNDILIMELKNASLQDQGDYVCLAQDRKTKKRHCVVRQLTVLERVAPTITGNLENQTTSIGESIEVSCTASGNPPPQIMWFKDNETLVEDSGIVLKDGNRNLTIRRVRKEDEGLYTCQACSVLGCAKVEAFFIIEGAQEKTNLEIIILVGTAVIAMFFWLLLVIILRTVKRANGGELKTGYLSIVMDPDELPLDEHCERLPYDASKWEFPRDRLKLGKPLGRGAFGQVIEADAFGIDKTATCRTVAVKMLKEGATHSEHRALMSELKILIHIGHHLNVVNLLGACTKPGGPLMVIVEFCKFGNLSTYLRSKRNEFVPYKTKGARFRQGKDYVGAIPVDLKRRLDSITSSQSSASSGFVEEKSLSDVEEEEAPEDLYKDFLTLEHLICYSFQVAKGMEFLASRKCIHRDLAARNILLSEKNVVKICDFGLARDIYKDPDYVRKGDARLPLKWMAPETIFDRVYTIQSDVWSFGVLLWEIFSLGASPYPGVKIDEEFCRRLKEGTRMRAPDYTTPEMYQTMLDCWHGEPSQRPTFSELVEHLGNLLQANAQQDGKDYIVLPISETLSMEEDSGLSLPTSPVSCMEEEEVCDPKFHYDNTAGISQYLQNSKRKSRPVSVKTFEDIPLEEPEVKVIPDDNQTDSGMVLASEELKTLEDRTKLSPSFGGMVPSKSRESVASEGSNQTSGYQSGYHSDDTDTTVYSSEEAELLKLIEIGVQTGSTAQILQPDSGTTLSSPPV
Experimental: VEGF Receptor-2 Kinase Assay
Recombinant VEGF receptor tyrosine kinase-2 was purified as a GST fusion protein from baculovirus-infected insect cells (Sf9). Poly-(Glu4Tyr), which was used as a kinase substrate, was purchased by the Sigma Company.
VEGF receptor tyrosine kinase (90 ng/measuring point) was incubated for 10 minutes at 22° C. in the presence of various concentrations of test substances (0 μm, as well as within the range of 0.001-30 μm) in 30 μl of assay buffer [40 mmol of Tris/HCl, […], 10 mmol of MgCl2, 1 mmol of MnCl2, 3 μmol of Na ortho-vanadate, 1.0 mmol of dithiothreitol, 8 μmol of adenosine trisphosphate (ATP), 27 μg/measuring point of poly-(Glu4Tyr), 0.2 μCi/measuring point of 33P-gamma ATP, 1% dimethyl sulfoxide]. The reaction was stopped by adding EDTA solution (250 mmol, pH 7.0, 10 μl/measuring point).
as §2, with “33P-ATP” for “^33P-ATP”, “33P” for “^33P”

[5] = poly-(Glu4Tyr) substrate, read-out: VEGF-R2 IC50

## C[C@@H](Nc1nc(Nc2ccc(S(=N)(=O)C3CC3)cc2)ncc1Br)C(C)(C)O (mixture of isomers) [Example 1.6, (RS)-S-[4-({5-bromo-4-[(R)-(2-hydroxy-1,2-dimethylpropyl)amino]pyrimidin-2-yl}amino)phenyl]-S-cyclopropylsulfoximide]
MaTu-ADR
  IC50: < 0.1 µM
CDK2/CycE
  IC50: 0.008 µM
[1]
  IC50: < 0.1 µM
[2]
  IC50: 0.14 µM
[3]
  IC50: < 0.1 µM
CDK1/CycB
  IC50: 0.014 µM

## C[C@H](CO)Nc1nc(Nc2ccc(S(=O)(CC3CC3)=NS(=O)(=O)CC[Si](C)(C)C)cc2)ncc1Br (mixture of isomers) [Example 1.7, (RS)-S-[4-({5-bromo-4-[(R)-(2-hydroxy-1-methylethyl)amino]pyrimidin-2-yl}amino)phenyl]-S-(cyclopropylmethyl)-N-[2-(trimethylsilyl)ethylsulfonyl]sulfoximide]
CDK2/CycE
  IC50: > 1 µM
[2]
  IC50: 1.1 µM
[4]; VEGF-R2 IC50, poly-(Glu4Tyr) substrate
  IC50: 0.24 µM
CDK1/CycB
  IC50: > 1 µM

## C[C@@H](Nc1nc(Nc2ccc(S(=N)(=O)C3CCCC3)cc2)ncc1Br)C(C)(C)O (mixture of isomers) [Example 1.11, (RS)-S-[4-({5-bromo-4-[(R)-(2-hydroxy-1,2-dimethylpropyl)amino]pyrimidin-2-yl}amino)phenyl]-S-cyclopentylsulfoximide]
MaTu-ADR
  IC50: 0.1 µM
CDK2/CycE
  IC50: 0.025 µM
[1]
  IC50: < 0.1 µM
[2]
  IC50: 0.1 µM
[3]
  IC50: < 0.1 µM
CDK1/CycB
  IC50: 0.044 µM

## COc1cc(Nc2ncc(Br)c(O[C@H](C)[C@@H](C)O)n2)ccc1S(C)(=N)=O (mixture of isomers) [Example 1.24, (RS)-S-[4-({5-bromo-4-[(1R,2R)-2-hydroxy-1-methylpropoxy]pyrimidin-2-yl}amino)-2-methoxyphenyl]-S-methyl sulfoximide]
MaTu-ADR
  IC50: 0.08 µM
[1]
  IC50: 0.07 µM
[2]
  IC50: < 0.1 µM
[4]; [5]
  IC50: 0.15 µM
[3]
  IC50: 0.13 µM
CDK1/CycB
  IC50: 0.005 µM

## CN=S(C)(=O)c1ccc(Nc2ncc(Br)c(N[C@H](C)[C@@H](C)O)n2)cc1 (mixture of isomers) [Example 1.28, (RS)-S-[4-({5-bromo-4-[(1R,2R)-(2-hydroxy-1-methylpropyl)amino]pyrimidin-2-yl}amino)phenyl]-N,S-dimethyl-sulfoximide]
MaTu-ADR
  IC50: 0.2 µM
CDK2/CycE
  IC50: 0.007 µM
[1]
  IC50: 0.12 µM
[3]
  IC50: 0.2 µM
CDK1/CycB
  IC50: 0.014 µM

## CCOC(=O)N=S(=O)(CC)c1ccc(Nc2ncc(Br)c(O[C@H](C)[C@@H](C)O)n2)cc1 (mixture of isomers) [Example 1.39, (RS)-S-[4-({5-bromo-4-[(1R,2R)-2-hydroxy-1-methylpropoxy]pyrimidin-2-yl}amino)phenyl]-N-(ethoxycarbonyl)-S-ethyl sulfoximide]
MaTu-ADR
  IC50: 0.9 µM
CDK2/CycE
  IC50: 0.019 µM
[1]
  IC50: 0.3 µM
[2]
  IC50: 0.3 µM
[3]
  IC50: 0.3 µM
CDK1/CycB
  IC50: 0.049 µM

## C[C@@H](Nc1nc(Nc2ccc(S(C)(=N)=O)cc2)ncc1Br)C(C)(C)O (mixture of isomers) [Example 1.41, (RS)-S-[4-({5-bromo-4-[(R)-(2-hydroxy-1,2-dimethylpropyl)amino]pyrimidin-2-yl}amino)phenyl]-S-methyl sulfoximide]
MaTu-ADR
  IC50: 0.07 µM
[1]
  IC50: 0.07 µM
[2]
  IC50: 0.08 µM
[3]
  IC50: 0.09 µM

## CCS(=N)(=O)c1ccc(Nc2ncc(Br)c(N[C@H](COC)[C@@H](C)O)n2)cc1 (mixture of isomers) [Example 1.48, (RS)-S-{4-[(5-bromo-4-{[(1R,2R)-2-hydroxy-1-(methoxymethyl)-propyl]amino}pyrimidin-2-yl)amino]phenyl}-S-ethyl sulfoximide]
[1]
  IC50: 0.3 µM
[4]; [5]
  IC50: 0.27 µM
[3]
  IC50: 0.4 µM

## CCS(=N)(=O)c1ccc(Nc2ncc(Br)c(N[C@H](C)[C@@H](C)O)n2)cc1 (mixture of isomers) [Example 1.51, (RS)-S-[4-({5-bromo-4-[(1R,2R)-(2-hydroxy-1-methylpropyl)amino]pyrimidin-2-yl}amino)phenyl]-S-ethyl sulfoximide]
MaTu-ADR
  IC50: 0.06 µM
[1]
  IC50: 0.05 µM
[4]; [5]
  IC50: 0.026 µM
[3]
  IC50: 0.05 µM
CDK1/CycB
  IC50: 0.005 µM

## C[C@H](CO)Nc1nc(Nc2ccc(S(C)(=O)=NS(=O)(=O)CC[Si](C)(C)C)cc2)ncc1Br (mixture of isomers) [Example 2.1, (RS)-S-[4-({5-bromo-4-[(R)-(2-hydroxy-1-methylethyl)amino]pyrimidin-2-yl}amino)phenyl]-S-methyl-N-[2-(trimethylsilyl)ethylsulfonyl]sulfoximide]
CDK2/CycE
  IC50: 0.39 µM
[2]
  IC50: 0.9 µM
[4]; [5]
  IC50: 0.074 µM

## CCOc1nc(Nc2ccc(S(=N)(=O)CC)cc2)ncc1Br (racemic) [Example 1.63, (RS)-S-{4-[(5-bromo-4-ethoxypyrimidin-2-yl)amino]phenyl}-S-ethyl sulfoximide]
CDK2/CycE
  IC50: 0.063 µM
[2]
  IC50: 0.9 µM
[4]; [5]
  IC50: 0.089 µM
CDK1/CycB
  IC50: 0.2 µM

## CS(=N)(=O)c1ccc(Nc2ncc(Br)c(Nc3ccccc3)n2)cc1 (racemic) [Example 2.3, (RS)-S-(4-{[5-bromo-4-(phenylamino)pyrimidin-2-yl]amino}phenyl)-S-methyl sulfoximide]
MaTu-ADR
  IC50: 0.12 µM
[1]
  IC50: 0.4 µM
[2]
  IC50: 0.3 µM
[3]
  IC50: 0.19 µM
CDK1/CycB
  IC50: 0.16 µM

## C[C@@H](O)[C@@H](C)Nc1nc(Nc2ccc(S(C)(=N)=O)cc2)ncc1Br (single isomer, unassigned) [Example 1.2]
MaTu-ADR
  IC50: 0.04 µM
[1]
  IC50: 0.03 µM
[3]
  IC50: 0.04 µM

## C[C@@H](Nc1nc(Nc2ccc(S(=N)(=O)CCO)cc2)ncc1Br)C(C)(C)O (single isomer, unassigned) [Example 1.14]
[1]
  IC50: 0.1 µM
[2]
  IC50: 0.09 µM
[4]; [5]
  IC50: 0.069 µM
CDK1/CycB
  IC50: 0.007 µM
